# Measurements taken from PubChem BioAssay AID248 (DTP/NCI, 2004).
# Values joined by “and” are separate entries in the source; they are usually repeats but may differ in a detail not shown here. Identical values can stand only once. Inconclusive results and toxic doses are left out.
# Tested on: L1210 leukemia ip in BDF1 mice, survival T/C
# Experiment: NCI In Vivo Anticancer Drug Screen. Data for tumor model L1210 Leukemia (intraperitoneal) in B6D2F1 (BDF1) mice
# Conditions: endpoint: mean survival time, higher = longer survival
# In short: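 In this screen, tumor-bearing mice given compound are compared to those given vehicle, and their survival values are reported as a treated-to-control quotient.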
# [1] = dose: 100.0 mg/kg/injection, schedule: Q01DX009 (ip), vehicle: saline with Tween-80
# [2] = dose: 100.0 mg/kg/injection, schedule: Q04DX003 (ip), vehicle: saline with Tween-80
# [3] = dose: 200.0 mg/kg/injection, schedule: Q04DX003 (ip), vehicle: saline with Tween-80
# [4] = dose: 400.0 mg/kg/injection, schedule: Q04DX003 (ip), vehicle: saline with Tween-80
# [5] = dose: 100.0 mg/kg/injection, schedule: Q01DX001 (ip), vehicle: carboxymethylcellulose (CMC)
# [6] = dose: 200.0 mg/kg/injection, schedule: Q01DX001 (ip), vehicle: carboxymethylcellulose (CMC)
# [7] = dose: 400.0 mg/kg/injection, schedule: Q01DX001 (ip), vehicle: carboxymethylcellulose (CMC)
# [8] = dose: 100.0 mg/kg/injection, schedule: Q01DX009 (ip), vehicle: saline
# [9] = dose: 200.0 mg/kg/injection, schedule: Q01DX009 (ip), vehicle: saline
# [10] = dose: 400.0 mg/kg/injection, schedule: Q01DX009 (ip), vehicle: saline
# [11] = dose: 100.0 mg/kg/injection, schedule: Q04DX003 (ip), vehicle: Klucel (hydroxypropylcellulose) (HPC)
# [12] = dose: 200.0 mg/kg/injection, schedule: Q04DX003 (ip), vehicle: Klucel (hydroxypropylcellulose) (HPC)
# [13] = dose: 400.0 mg/kg/injection, schedule: Q04DX003 (ip), vehicle: Klucel (hydroxypropylcellulose) (HPC)
# [14] = dose: 50.0 mg/kg/injection, schedule: Q01DX001 (ip), vehicle: saline
# [15] = dose: 100.0 mg/kg/injection, schedule: Q01DX001 (ip), vehicle: saline
# [16] = dose: 200.0 mg/kg/injection, schedule: Q01DX001 (ip), vehicle: saline
# [17] = dose: 400.0 mg/kg/injection, schedule: Q01DX001 (ip), vehicle: saline
structure (smiles),measurement,setting,value
O=C(Nc1ccc(C(=O)O)cc1)Oc1ccc(N(CCCl)CCCl)cc1,T/C,"dose: 6.0 mg/kg/injection, schedule: Q01DX009 (ip), vehicle: other",114 % of control
same,T/C,"dose: 6.0 mg/kg/injection, schedule: Q01DX009 (ip), vehicle: saline",106 % of control
same,T/C,"dose: 12.0 mg/kg/injection, schedule: Q01DX009 (ip), vehicle: other",122 % of control
same,T/C,"dose: 12.0 mg/kg/injection, schedule: Q01DX009 (ip), vehicle: saline",117 % of control
same,T/C,"dose: 37.5 mg/kg/injection, schedule: Q01DX001 (ip), vehicle: other",114 % of control
same,T/C,"dose: 48.0 mg/kg/injection, schedule: Q01DX009 (ip), vehicle: other",160 % of control
same,T/C,"dose: 75.0 mg/kg/injection, schedule: Q01DX001 (ip), vehicle: carboxymethylcellulose (CMC)",124 % of control
same,T/C,"dose: 75.0 mg/kg/injection, schedule: Q01DX001 (ip), vehicle: other",121 % of control
same,T/C,"dose: 96.0 mg/kg/injection, schedule: Q01DX009 (ip), vehicle: other",101 % of control
same,T/C,"dose: 96.0 mg/kg/injection, schedule: Q01DX009 (ip), vehicle: saline",91 % of control
same,T/C,"dose: 300.0 mg/kg/injection, schedule: Q01DX001 (ip), vehicle: other",117 % of control
COc1ccc(C(=O)C(C)Br)c(OCc2ccccc2)c1OC (stereo not drawn),T/C,[1],107 % of control
same,T/C,[2],106 % of control
same,T/C,"dose: 200.0 mg/kg/injection, schedule: Q01DX009 (ip), vehicle: saline with Tween-80",97 % of control
same,T/C,[3],90 % of control
same,T/C,"dose: 400.0 mg/kg/injection, schedule: Q01DX009 (ip), vehicle: saline with Tween-80",98 % of control
same,T/C,[4],105 % of control
C[N+](C)(C)CCCN1c2ccccc2S(=O)c2ccc(Cl)cc21 (stereo not drawn),T/C,[5],100 % of control
same,T/C,[6],103 % of control
same,T/C,[7],103 % of control
C[N+](C)(C)CCP(=O)([O-])O,T/C,[8],101 % of control
same,T/C,[9],93 % of control
same,T/C,[10],95 % of control
O=C(O)c1ccc([N+](=O)[O-])cc1-n1cccc1,T/C,[11],95 % of control
same,T/C,[12],98 % of control
same,T/C,[13],88 % of control
CCCN(CCC)C(=O)CCC(C)O (stereo not drawn),T/C,"dose: 100.0 mg/kg/injection, schedule: Q01DX001 (ip), vehicle: acetone",113 % of control
same,T/C,"dose: 200.0 mg/kg/injection, schedule: Q01DX001 (ip), vehicle: acetone",101 % of control
same,T/C,"dose: 400.0 mg/kg/injection, schedule: Q01DX001 (ip), vehicle: acetone",103 % of control
COC(=O)c1c(C(=O)OC)c2c(-c3ccccc3)cc3cccc1n32,T/C,[11],94 % of control
same,T/C,[12],102 % of control
same,T/C,[13],94 % of control
Cc1nc2cc(N=Cc3ccc(N(CCCl)CCCl)cc3Cl)ccc2n1C,T/C,"dose: 100.0 mg/kg/injection, schedule: Q04DX002 (ip), vehicle: Klucel (hydroxypropylcellulose) (HPC)",104 % of control
same,T/C,"dose: 200.0 mg/kg/injection, schedule: Q04DX002 (ip), vehicle: Klucel (hydroxypropylcellulose) (HPC)",104 % of control
same,T/C,"dose: 400.0 mg/kg/injection, schedule: Q04DX002 (ip), vehicle: Klucel (hydroxypropylcellulose) (HPC)",104 % of control
O=C(CCCC(=O)N/N=C/c1cc(O)ccc1O)N/N=C\c1cc(O)ccc1O,T/C,[14],102 % of control
same,T/C,[15],96 % of control
same,T/C,[16],90 % of control
same,T/C,[17],98 % of control
OCCN1CCN(CC/C=C2\c3ccccc3COc3ccc(Cl)cc32)CC1,T/C,"dose: 0.78 mg/kg/injection, schedule: Q03HX024 (ip), vehicle: saline",97 % of control
same,T/C,"dose: 1.56 mg/kg/injection, schedule: Q03HX024 (ip), vehicle: saline",94 % of control
same,T/C,"dose: 2.0 mg/kg/injection, schedule: Q01DX009 (ip), vehicle: saline",88 % of control
same,T/C,"dose: 3.12 mg/kg/injection, schedule: Q01DX009 (ip), vehicle: saline",114 % of control and 123 % of control
same,T/C,"dose: 3.12 mg/kg/injection, schedule: Q03HX024 (ip), vehicle: saline",96 % of control
same,T/C,"dose: 3.12 mg/kg/injection, schedule: Q04DX003 (ip), vehicle: saline",97 % of control
same,T/C,"dose: 4.0 mg/kg/injection, schedule: Q01DX009 (ip), vehicle: saline",98 % of control
same,T/C,"dose: 6.25 mg/kg/injection, schedule: Q01DX009 (ip), vehicle: saline",107 % of control and 122 % of control
same,T/C,"dose: 6.25 mg/kg/injection, schedule: Q04DX003 (ip), vehicle: saline",105 % of control and 120 % of control
same,T/C,"dose: 8.0 mg/kg/injection, schedule: Q01DX009 (ip), vehicle: saline",96 % of control
same,T/C,"dose: 12.5 mg/kg/injection, schedule: Q01DX001 (ip), vehicle: saline",106 % of control
same,T/C,"dose: 12.5 mg/kg/injection, schedule: Q01DX009 (ip), vehicle: saline",114 % of control
same,T/C,"dose: 12.5 mg/kg/injection, schedule: Q04DX003 (ip), vehicle: saline",103 % of control and 117 % of control
same,T/C,"dose: 16.0 mg/kg/injection, schedule: Q01DX009 (ip), vehicle: saline",100 % of control
same,T/C,"dose: 18.75 mg/kg/injection, schedule: Q01DX001 (ip), vehicle: saline",100 % of control
same,T/C,"dose: 25.0 mg/kg/injection, schedule: Q01DX001 (ip), vehicle: saline",120 % of control
same,T/C,"dose: 25.0 mg/kg/injection, schedule: Q04DX003 (ip), vehicle: saline",95 % of control and 119 % of control
same,T/C,"dose: 37.5 mg/kg/injection, schedule: Q01DX001 (ip), vehicle: saline",120 % of control
same,T/C,[14],101 % of control
same,T/C,"dose: 50.0 mg/kg/injection, schedule: Q04DX003 (ip), vehicle: saline",101 % of control
same,T/C,"dose: 75.0 mg/kg/injection, schedule: Q01DX001 (ip), vehicle: saline",88 % of control
same,T/C,[15],118 % of control
Cn1c(=O)cc(CC(=O)C(=O)O)c2ccccc21,T/C,[15],88 % of control
same,T/C,[16],93 % of control
same,T/C,[17],93 % of control
CCOc1ccc(-n2c(C)nc3ccccc3c2=O)cc1CNCCBr,T/C,[14],103 % of control
same,T/C,[15],111 % of control
same,T/C,[16],111 % of control
CCOC(=O)c1ccc(CCCCl)cc1,T/C,"dose: 100.0 mg/kg/injection, schedule: Q01DX001 (ip), vehicle: Klucel (hydroxypropylcellulose) (HPC)",98 % of control
same,T/C,"dose: 200.0 mg/kg/injection, schedule: Q01DX001 (ip), vehicle: Klucel (hydroxypropylcellulose) (HPC)",88 % of control
same,T/C,"dose: 400.0 mg/kg/injection, schedule: Q01DX001 (ip), vehicle: Klucel (hydroxypropylcellulose) (HPC)",91 % of control
c1ccc([Si](c2ccccc2)(c2ccccc2)c2ccc3ccccc3c2)cc1,T/C,"dose: 25.6 mg/kg/injection, schedule: Q04DX002 (ip), vehicle: saline with Tween-80",87 % of control
same,T/C,"dose: 64.0 mg/kg/injection, schedule: Q04DX002 (ip), vehicle: saline with Tween-80",90 % of control
same,T/C,[2],90 % of control
same,T/C,"dose: 160.0 mg/kg/injection, schedule: Q04DX002 (ip), vehicle: saline with Tween-80",90 % of control
same,T/C,[3],88 % of control
same,T/C,"dose: 400.0 mg/kg/injection, schedule: Q04DX002 (ip), vehicle: saline with Tween-80",90 % of control
same,T/C,[4],87 % of control
NC(CCC1SCCS1)C(=O)O (stereo not drawn),T/C,[5],104 % of control
same,T/C,[6],96 % of control
same,T/C,[7],98 % of control
CCOC(=O)NC(C)(C)Cc1ccccc1,T/C,"dose: 25.0 mg/kg/injection, schedule: Q01DX009 (ip), vehicle: saline with Tween-80",91 % of control
same,T/C,"dose: 25.0 mg/kg/injection, schedule: Q04DX003 (ip), vehicle: saline with Tween-80",101 % of control
same,T/C,"dose: 50.0 mg/kg/injection, schedule: Q01DX009 (ip), vehicle: saline with Tween-80",98 % of control
same,T/C,"dose: 50.0 mg/kg/injection, schedule: Q04DX003 (ip), vehicle: saline with Tween-80",106 % of control
same,T/C,[1],96 % of control
same,T/C,[2],97 % of control and 103 % of control
Cc1ccc(S(=O)(=O)NCCCCCC(=O)OCc2ccccc2)cc1,T/C,"dose: 50.0 mg/kg/injection, schedule: Q01DX009 (ip), vehicle: saline",97 % of control
same,T/C,[8],94 % of control and 100 % of control
same,T/C,"dose: 100.0 mg/kg/injection, schedule: Q04DX003 (ip), vehicle: saline",108 % of control
same,T/C,[9],96 % of control and 104 % of control
same,T/C,"dose: 200.0 mg/kg/injection, schedule: Q04DX003 (ip), vehicle: saline",101 % of control
same,T/C,[10],94 % of control
same,T/C,"dose: 400.0 mg/kg/injection, schedule: Q04DX003 (ip), vehicle: saline",100 % of control
